Values quoted from earlier work as cited in US9662414B2, “Dressing system” (Edixomed Limited, priority 2013, dated 2017).

Details: healthy 70 kg-adult

First: COC(=O)[C@H]1[C@@H](OC(=O)c2ccccc2)C[C@@H]2CC[C@H]1N2C [cocaine]
Second: CCCCNc1ccc(C(=O)OCCN(C)C)cc1 [tetracaine]
The “generally accepted safe dosage for topical anaesthesia” value of the first is higher: 200 mg for the first, 50 mg for the second.

In the case of `CCN(CC)CC(=O)Nc1c(C)cccc1C` [lidocaine], the “generally accepted safe dosage for topical anaesthesia” value is given as 750 mg.
